Laboratory results reported in patent publication US10294202B2, “Pyrrolidinones as herbicides” (FMC Corporation, priority 2013, dated 2019).

Assays:
ryegrass, Italian = assay: Test A pre-/postemergence herbicide test; type: in vivo, Lolium multiflorum; conditions: for Plant response rating, Ryegrass, Italian: 0 to 100 scale
Outline: (§1)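 Visual injury ratings, 0 = no effect, 100 = complete control, taken ~10 days after treatment against untreated greenhouse controls. Preemergence: directed soil spray onto seeded loam/sand pots. Postemergence: spray onto plants at one- to two-leaf stage, 2–10 cm tall.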

corn = assay: Test A pre-/postemergence herbicide test; type: in vivo, Zea mays; conditions: Postemergence; for Plant response rating, Corn: 125 g ai/ha, 0 to 100 scale, 0 is no effect, 100 is complete control; for Corn plant response rating (0 to 100 scale, 0 is no effect, 100 is complete control): 500 g ai/ha
Outline: as §1

barnyardgrass [1] = assay: Test A pre-/postemergence herbicide test; type: in vivo, Echinochloa crus-galli; conditions: for Plant response rating, Barnyardgrass: 0 to 100 scale
Outline: as §1

ducksalad = assay: Test C flooded paddy test; type: in vivo, Heteranthera limosa; conditions: Flood
Outline: (§2)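 Plants grown to the 2-leaf stage; pots flooded to 3 cm above soil and compound applied directly into the paddy water, depth kept throughout. Greenhouse 13 to 15 days, then visual rating vs untreated controls on 0–100 scale (0 no effect, 100 complete control); dash means no result.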

rice = assay: Test C flooded paddy test; type: in vivo, Oryza sativa; conditions: Flood
Outline: as §2

ragweed = assay: Test A pre-/postemergence herbicide test; type: in vivo, Ambrosia elatior; conditions: for Plant response rating, Ragweed: 0 to 100 scale
Outline: as §1

pigweed = assay: Test A pre-/postemergence herbicide test; type: in vivo, Amaranthus retroflexus; conditions: for Plant response rating, Pigweed: 0 to 100 scale
Outline: as §1

barnyardgrass [2] = assay: Test C flooded paddy test; type: in vivo, Echinochloa crus-galli; conditions: Flood
Outline: as §2

kochia = assay: Test A pre-/postemergence herbicide test; type: in vivo, Kochia scoparia; conditions: for Plant response rating, Kochia: 0 to 100 scale
Outline: as §1

wheat = assay: Test A pre-/postemergence herbicide test; type: in vivo, Triticum aestivum; conditions: Postemergence; for Plant response rating, Wheat: 125 g ai/ha, 0 to 100 scale, 0 is no effect, 100 is complete control; for Wheat plant response rating (0 to 100 scale, 0 is no effect, 100 is complete control): 500 g ai/ha
Outline: as §1

giant foxtail = assay: Test A pre-/postemergence herbicide test; type: in vivo, Setaria faberii; conditions: for Plant response rating, Foxtail, Giant: 0 to 100 scale
Outline: as §1

galium = assay: Test A postemergence herbicide test; type: in vivo, Galium aparine; conditions: for Plant response rating, Galium: 125 g ai/ha, 0 to 100 scale, 0 is no effect, 100 is complete control; for Galium plant response rating (0 to 100 scale, 0 is no effect, 100 is complete control): 500 g ai/ha
Outline: (§3)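 Visual injury rating, 0 (no effect) to 100 (complete control), versus untreated controls ~10 days after treatment. Postemergence spray applied at one- to two-leaf stage, plants 2–10 cm tall, potted in loam soil/sand. Greenhouse-held.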

sedge, umbrella = assay: Test C flooded paddy test; type: in vivo, Cyperus difformis; conditions: Flood
Outline: as §2

blackgrass = assay: Test A postemergence herbicide test; type: in vivo, Alopecurus myosuroides; conditions: for Plant response rating, Blackgrass: 125 g ai/ha, 0 to 100 scale, 0 is no effect, 100 is complete control; for Blackgrass plant response rating (0 to 100 scale, 0 is no effect, 100 is complete control): 500 g ai/ha
Outline: as §3

[3] = 125 g ai/ha, visual rating, 0 no effect, 100 complete control, approximately 10 days, preemergence
[4] = Postemergence, 125 g ai/ha, 0 is no effect, 100 is complete control
[5] = preemergence, 500 g ai/ha, 0 is no effect and 100 is complete control
[6] = 125 g ai/ha, scale of 0 to 100 where 0 is no effect and 100 is complete control, 13 to 15 days
[7] = 250 g ai/ha, scale of 0 to 100 where 0 is no effect and 100 is complete control, 13 to 15 days

O=C1NCC(c2cccc(C(F)F)c2)C1C(=O)Nc1ccccc1C(F)(F)F (racemic) [Compound 212]
90: Barnyardgrass plant response rating (0 to 100 scale, 0 is no effect, 100 is complete control) (barnyardgrass [1]; Postemergence, 500 g ai/ha) | Plant response rating, Barnyardgrass (barnyardgrass [1]; [5]) | Foxtail, Giant plant response rating (0 to 100 scale, 0 is no effect, 100 is complete control) (giant foxtail; Postemergence, 500 g ai/ha) | Plant response rating, Foxtail, Giant (giant foxtail; [5])
75: Plant response rating, Ducksalad (ducksalad; 500 g ai/ha, scale 0 to 100)
65: Plant response rating, Barnyardgrass (barnyardgrass [2]; 1000 g ai/ha, scale 0 to 100)
15: Plant response rating, Barnyardgrass (barnyardgrass [2]; [7])
30: Plant response rating, Ryegrass, Italian (ryegrass, Italian; [5])
40: Plant response rating, Barnyardgrass (barnyardgrass [2]; 500 g ai/ha, scale 0 to 100) | Plant response rating, Blackgrass (blackgrass)
50: Corn plant response rating (0 to 100 scale, 0 is no effect, 100 is complete control) (corn) | Plant response rating, Ragweed (ragweed; [5]) | Plant response rating, Galium (galium)
100: Plant response rating, Ducksalad (ducksalad; 1000 g ai/ha, scale 0 to 100)
20: Ragweed plant response rating (0 to 100 scale, 0 is no effect, 100 is complete control) (ragweed; Postemergence, 500 g ai/ha) | Kochia plant response rating (0 to 100 scale, 0 is no effect, 100 is complete control) (kochia; Postemergence, 500 g ai/ha) | Plant response rating, Kochia (kochia; [5])
70: Plant response rating, Ducksalad (ducksalad; [7]) | Wheat plant response rating (0 to 100 scale, 0 is no effect, 100 is complete control) (wheat) | Plant response rating, Foxtail, Giant (giant foxtail; [3])
0: Plant response rating, Ryegrass, Italian (ryegrass, Italian; [3]) | Plant response rating, Ryegrass, Italian (ryegrass, Italian; [4]) | Ryegrass, Italian plant response rating (0 to 100 scale, 0 is no effect, 100 is complete control) (ryegrass, Italian; Postemergence, 500 g ai/ha) | Plant response rating, Corn (corn) | Plant response rating, Ducksalad (ducksalad; [6]) | Plant response rating, Rice (rice; [6]) | Plant response rating, Rice (rice; [7]) | Plant response rating, Rice (rice; 500 g ai/ha, scale 0 to 100) | Plant response rating, Rice (rice; 1000 g ai/ha, scale 0 to 100) | Plant response rating, Ragweed (ragweed; [3]) | Plant response rating, Ragweed (ragweed; [4]) | Plant response rating, Pigweed (pigweed; [3]) | Plant response rating, Pigweed (pigweed; [4]) | Pigweed plant response rating (0 to 100 scale, 0 is no effect, 100 is complete control) (pigweed; Postemergence, 500 g ai/ha) | Plant response rating, Pigweed (pigweed; [5]) | Plant response rating, Barnyardgrass (barnyardgrass [2]; [6]) | Plant response rating, Kochia (kochia; [3]) | Plant response rating, Kochia (kochia; [4]) | Plant response rating, Wheat (wheat) | Plant response rating, Sedge, Umbrella (sedge, umbrella; [6]) | Plant response rating, Sedge, Umbrella (sedge, umbrella; [7]) | Plant response rating, Sedge, Umbrella (sedge, umbrella; 500 g ai/ha, scale 0 to 100) | Plant response rating, Sedge, Umbrella (sedge, umbrella; 1000 g ai/ha, scale 0 to 100)
60: Plant response rating, Barnyardgrass (barnyardgrass [1]; [3]) | Plant response rating, Barnyardgrass (barnyardgrass [1]; [4]) | Plant response rating, Foxtail, Giant (giant foxtail; [4]) | Galium plant response rating (0 to 100 scale, 0 is no effect, 100 is complete control) (galium) | Blackgrass plant response rating (0 to 100 scale, 0 is no effect, 100 is complete control) (blackgrass)

O=C1NC[C@@H](c2cccc(C(F)(F)F)c2)[C@@H]1C(=O)Nc1cccc(F)c1F [Compound 205]
0: Plant response rating, Ryegrass, Italian (ryegrass, Italian; [3]) | Plant response rating, Ryegrass, Italian (ryegrass, Italian; [4]) | Ryegrass, Italian plant response rating (0 to 100 scale, 0 is no effect, 100 is complete control) (ryegrass, Italian; Postemergence, 500 g ai/ha) | Plant response rating, Corn (corn) | Corn plant response rating (0 to 100 scale, 0 is no effect, 100 is complete control) (corn) | Plant response rating, Ducksalad (ducksalad; [6]) | Plant response rating, Ducksalad (ducksalad; [7]) | Plant response rating, Rice (rice; [6]) | Plant response rating, Rice (rice; [7]) | Plant response rating, Rice (rice; 500 g ai/ha, scale 0 to 100) | Plant response rating, Rice (rice; 1000 g ai/ha, scale 0 to 100) | Plant response rating, Ragweed (ragweed; [3]) | Plant response rating, Ragweed (ragweed; [4]) | Ragweed plant response rating (0 to 100 scale, 0 is no effect, 100 is complete control) (ragweed; Postemergence, 500 g ai/ha) | Plant response rating, Pigweed (pigweed; [3]) | Plant response rating, Pigweed (pigweed; [4]) | Plant response rating, Barnyardgrass (barnyardgrass [2]; [6]) | Plant response rating, Kochia (kochia; [4]) | Plant response rating, Wheat (wheat) | Plant response rating, Sedge, Umbrella (sedge, umbrella; [6]) | Plant response rating, Sedge, Umbrella (sedge, umbrella; [7]) | Plant response rating, Sedge, Umbrella (sedge, umbrella; 500 g ai/ha, scale 0 to 100) | Plant response rating, Sedge, Umbrella (sedge, umbrella; 1000 g ai/ha, scale 0 to 100) | Plant response rating, Blackgrass (blackgrass)
90: Foxtail, Giant plant response rating (0 to 100 scale, 0 is no effect, 100 is complete control) (giant foxtail; Postemergence, 500 g ai/ha) | Plant response rating, Foxtail, Giant (giant foxtail; [5])
45: Plant response rating, Barnyardgrass (barnyardgrass [2]; 1000 g ai/ha, scale 0 to 100)
50: Plant response rating, Ducksalad (ducksalad; 500 g ai/ha, scale 0 to 100) | Plant response rating, Kochia (kochia; [5])
30: Plant response rating, Barnyardgrass (barnyardgrass [1]; [3]) | Plant response rating, Ragweed (ragweed; [5]) | Pigweed plant response rating (0 to 100 scale, 0 is no effect, 100 is complete control) (pigweed; Postemergence, 500 g ai/ha) | Plant response rating, Barnyardgrass (barnyardgrass [2]; 500 g ai/ha, scale 0 to 100) | Plant response rating, Galium (galium)
60: Plant response rating, Foxtail, Giant (giant foxtail; [3]) | Galium plant response rating (0 to 100 scale, 0 is no effect, 100 is complete control) (galium)
80: Plant response rating, Barnyardgrass (barnyardgrass [1]; [5])
40: Plant response rating, Barnyardgrass (barnyardgrass [1]; [4]) | Kochia plant response rating (0 to 100 scale, 0 is no effect, 100 is complete control) (kochia; Postemergence, 500 g ai/ha) | Wheat plant response rating (0 to 100 scale, 0 is no effect, 100 is complete control) (wheat)
65: Plant response rating, Ducksalad (ducksalad; 1000 g ai/ha, scale 0 to 100)
70: Barnyardgrass plant response rating (0 to 100 scale, 0 is no effect, 100 is complete control) (barnyardgrass [1]; Postemergence, 500 g ai/ha) | Plant response rating, Foxtail, Giant (giant foxtail; [4]) | Blackgrass plant response rating (0 to 100 scale, 0 is no effect, 100 is complete control) (blackgrass)
20: Plant response rating, Ryegrass, Italian (ryegrass, Italian; [5]) | Plant response rating, Pigweed (pigweed; [5]) | Plant response rating, Barnyardgrass (barnyardgrass [2]; [7]) | Plant response rating, Kochia (kochia; [3])
